Results taken from patent US20050069498A1, “Method for identifying metabotropic glutamate receptor agonists and potentiators” (priority 2003, published 2005).

System: VHipp norepinephrine (NE) release
Assay: Ketamine challenge: norepinephrine release in ventral hippocampus by in vivo microdialysis
Conditions: three ketamine doses vs vehicle control, 20 min intervals over 120 min, time course and AUC (FIG. 2, 3)

SMILES: CNC1(c2ccccc2Cl)CCCCC1=O (centres unmarked) [Ketamine]
- VHipp norepinephrine (NE) release after ketamine challenge: dose dependent increase
- VHipp norepinephrine (NE) release after ketamine challenge (listed as ketamine): greater area under the curve
